Assay results taken from US6534526B2, “Laminitis in horses” (Clemson University, priority 2001, dated 2003).
Structures can show the parent of a compound that is named as a salt.

Columns and labels:
[1] = α-adrenergic antagonists examined for laminitis; background statement; cited from earlier work
[2] = tested on: laminitis in horses; assay: Oral domperidone treatment of laminitic horses (case examples 1-6)

Row | Structure (SMILES) | side effects [1] | side effects during treatment ([2]; Example 1: 1.1 mg/kg orally twice a day) | time the mare remained sound ([2]; Example 1: 1.1 mg/kg orally twice a day for 15 days) | laminitic symptoms ([2]; Example 1: 15 year old Arabian mare, chronic founder, 1.1 mg/kg orally twice a day, after three days of treatment) | return of laminitic symptoms ([2]; Example 1: after the resumed treatment) | soundness after resumed treatment ([2]; Example 1: treatment resumed a few weeks later after return of symptoms, after four days of treatment) | walking / stiffness ([2]; Example 2: pony of approx. 400 pounds, laminitic founder due to grain overload, 1.1 mg/kg orally twice per day, second day of treatment) | recovery ([2]; Example 2: pony, treatment continued for an additional two days) | return of symptoms ([2]; Example 3: total treatment 5 days) | symptoms ([2]; Example 3: two horses with early signs of laminitis, 1.1 mg/kg orally twice per day, after two days of treatment) | signs of laminitis ([2]; Example 4: mare laminitic for several weeks, 1.1 mg/kg orally SID for 5 days, after three days of treatment) | recovery ([2]; Example 4: mare, 1.1 mg/kg orally SID for 5 days) | return of laminitic symptoms ([2]; Example 5: 1.1 mg/kg orally SID for 5 days) | laminitic symptoms ([2]; Example 5: horse with lameness of unknown etiology, 1.1 mg/kg orally SID for 5 days) | improvement ([2]; Example 6: 1.1 mg/kg domperidone orally twice a day plus banamine plus acepromazine, after ten days of treatment) | walking ([2]; Example 6: Paso Fino mare, 1.1 mg/kg domperidone orally twice a day plus banamine plus acepromazine, afternoon of the second day of treatment) | effectiveness against laminitic symptoms ([2]; horses, recommended concentrations, administered at least once per day) | benefit at higher oral concentrations ([2]; oral, concentrations greater than 3.3 mg/kg) | oral concentration giving the best results ([2]; taken orally)
1 | CC(COc1ccccc1)N(CCCl)Cc1ccccc1 (centres unmarked) [phenoxybenzamine] | hypotension, recumbency, and a prolonged duration of action | – | – | – | – | – | – | – | – | – | – | – | – | – | – | – | – | – | –
2 | O=c1[nH]c2ccccc2n1CCCN1CCC(n2c(=O)[nH]c3cc(Cl)ccc32)CC1 [domperidone, 5-Chloro-1-[1-[3-(2,3-dihydro-2-oxo-1H-benzimidazol-1-yl)propyl]-4-piperidinyl]-1,3-dihydro-2H-benzimidazol-2-one] | – | no side effects noted | at least 15 days | laminitic symptoms had disappeared | Laminitic symptoms did not return | the mare was sound again | walking the second day of treatment with no apparent stiffness | Complete recovery was apparent | No return of symptoms was noted | Symptoms were gone in both animals | showing no signs of laminitis | fully recovered | did not return | disappeared after the second day of treatment | about 75% | had improved and was walking some on her own, without prodding | found to be effective | no further benefits have been observed | about 1.1 mg/kg
3 | CC(=O)c1ccc2c(c1)N(CCCN(C)C)c1ccccc1S2 [acepromazine maleate] | sedation and cholinesterase inhibition | – | – | – | – | – | – | – | – | – | – | – | – | – | – | – | – | – | –
